Where two headings read alike, the source gives them in different places.
Details: saturated

For Cc1cc2c(s1)Nc1ccccc1N=C2N1CCN(C)CC1 [Olanzapine, 2-methyl-4-(4-methyl-1-piperazinyl)-10H-thieno[2,3-b] [1,5]benzodiazepine], the Appearance (20% Dimethylacetamide/80% PEG 200) was “Clear amber solution”, the Appearance (40% Dimethylacetamide/60% PEG 200) was “Clear amber solution” and the Appearance (60% Dimethylacetamide/40% PEG 200) was “Clear dark amber solution”. The Appearance (80% Dimethylacetamide/20% PEG 200) was “Clear dark amber solution” and the Appearance (100% PEG 200) was “Clear amber solution”.
